Experimental findings from patent publication US20230391770A1, “METTL3 INHIBITORY COMPOUNDS” (Storm Therapeutics Limited, priority 2020, published 2023) are described below.

In general, IC50 refers to the concentration that gives 50% inhibition. A lower IC50 goes with greater potency in that assay.

Chain of METTL3/14 (Q86U44 whole entry): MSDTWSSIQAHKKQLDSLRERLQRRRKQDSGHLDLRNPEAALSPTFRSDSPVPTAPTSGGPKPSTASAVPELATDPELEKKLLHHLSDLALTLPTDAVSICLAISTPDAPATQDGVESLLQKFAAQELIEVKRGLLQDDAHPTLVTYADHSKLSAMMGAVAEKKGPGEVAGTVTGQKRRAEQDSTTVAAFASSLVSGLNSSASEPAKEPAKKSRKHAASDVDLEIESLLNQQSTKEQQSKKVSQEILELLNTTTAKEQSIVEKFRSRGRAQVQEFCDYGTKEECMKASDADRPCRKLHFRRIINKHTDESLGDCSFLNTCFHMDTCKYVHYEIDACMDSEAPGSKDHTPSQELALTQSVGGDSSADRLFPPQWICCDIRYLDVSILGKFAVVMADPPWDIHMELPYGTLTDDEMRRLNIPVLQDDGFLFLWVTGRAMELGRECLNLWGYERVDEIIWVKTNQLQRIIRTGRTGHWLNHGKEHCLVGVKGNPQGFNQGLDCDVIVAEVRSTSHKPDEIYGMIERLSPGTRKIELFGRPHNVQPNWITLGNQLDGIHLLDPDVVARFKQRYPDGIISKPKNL
Chain of METTL3/14 (Q9HCE5 whole entry partner): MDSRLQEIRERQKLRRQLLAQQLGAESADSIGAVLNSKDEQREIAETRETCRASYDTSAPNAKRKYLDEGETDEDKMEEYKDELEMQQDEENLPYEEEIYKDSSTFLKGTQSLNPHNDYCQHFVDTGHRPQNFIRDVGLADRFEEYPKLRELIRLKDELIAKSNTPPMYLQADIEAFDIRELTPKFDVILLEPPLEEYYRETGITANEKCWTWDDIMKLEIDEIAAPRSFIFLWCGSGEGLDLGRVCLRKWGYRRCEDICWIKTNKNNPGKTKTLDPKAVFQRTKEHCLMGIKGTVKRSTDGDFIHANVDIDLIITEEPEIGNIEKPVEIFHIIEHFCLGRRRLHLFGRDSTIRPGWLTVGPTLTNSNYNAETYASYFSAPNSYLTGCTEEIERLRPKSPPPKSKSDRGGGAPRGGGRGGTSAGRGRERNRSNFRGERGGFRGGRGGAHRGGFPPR

One assay has as its target METTL3/14 (Homo sapiens (Human), UniProt Q86U44). Put plainly: METTL3/14 methyltransferase biochemical assay (RapidFire mass spectrometry, METTL3_14 RFMS).
Conditions: not given
On the procedure:
The enzymatic assay was established to determine IC50 values for inhibition of RNA methyltransferase activity. The enzyme used was full-length his-tagged METTL3 co-expressed with full length FLAG-tagged METTL14 in a baculovirus expression system. […] The reaction was incubated for further 60 minutes at room temperature, and then quenched by the addition of 40 μL 7.5% TCA with two internal product standards (D4-SAH and ^13C10-SAH). After termination, plates were sealed, centrifuged and stored at 4° C. until analysis. […] RNA methyltransferase activity was measured label free using the RapidFireTM mass spectrometry (RF/MS) platform. Stopped and stable assay plates were analyzed on the Agilent RF300 integrated autosampler/solid-phase extraction (SPE) system coupled to an ABSciex 4000 mass spectrometer for the generation of the product S-adenosyl homocysteine (SAH) and normalized to the ratio of signal of the two internal product standards, respectively. Solvent A was water containing 0.1% (v/v) TCA. Solvent B was acetonitrile/0.1% ammonium acetate (8:2, v/v).
In turn, `Cc1nc(C(=O)NCc2cn3cc(CNCC4CCCCC4)ccc3n2)cc(=O)n1C` [Example 2, N-[(6-{[(cyclohexylmethyl)amino]methyl}imidazo[1,2-a]pyridin-2-yl)methyl]-1,2-dimethyl-6-oxo-1,6-dihydropyrimidine-4-carboxamide] registered an IC50 of 719 nM.

`O=C(NCc1cn2cc(CNCC3CCCCC3)ccc2n1)c1cnc2ccccc2n1` [Example 6, N-[(6-{[(cyclohexylmethyl)amino]methyl}imidazo[1,2-a]pyridin-2-yl)methyl]quinoxaline-2-carboxamide] displayed an IC50 of 151 nM.

With `O=C(NCc1cn2cc(CNCC3CCCCC3)ccc2n1)c1ccnc2[nH]ncc12` [Example 7, N-[(6-{[(cyclohexylmethyl)amino]methyl}imidazo[1,2-a]pyridin-2-yl)methyl]-1H-pyrazolo[3,4-b]pyridine-4-carboxamide], the IC50 was 1400 nM.

For the molecule `O=C(NCc1cn2cc(CNCC3CCC3)ccc2n1)c1cccn2cncc12` [Example 10, N-[(6-{[(cyclobutylmethyl)amino]methyl}imidazo[1,2-a]pyridin-2-yl)methyl]imidazo[1,5-a]pyridine-8-carboxamide], the 50% inhibitory concentration (IC50) is 36.5 nM.

With `O=C(NCc1cn2cc(CNCC3CCC3)ccc2n1)c1cccc2cncn12` [Example 11, N-[(6-{[(cyclobutylmethyl)amino]methyl}imidazo[1,2-a]pyridin-2-yl)methyl]imidazo[1,5-a]pyridine-5-carboxamide], the 50% inhibitory concentration (IC50) came to 104 nM.

In the case of `O=C(NCc1cn2cc(CNCC3CCC3)ccc2n1)c1cnc2[nH]cnc2c1` [Example 13, N-[(6-{[(cyclobutylmethyl)amino]methyl}imidazo[1,2-a]pyridin-2-yl)methyl]-3H-imidazo[4,5-b]pyridine-6-carboxamide], it took 1070 nM to reach half-maximal inhibition (IC50).

As to `O=C(NCc1cn2cc(CNCC3CCC3)ccc2n1)c1cnc2[nH]ccc2c1` [Example 14, N-[(6-{[(cyclobutylmethyl)amino]methyl}imidazo[1,2-a]pyridin-2-yl)methyl]-1H-pyrrolo[2,3-b]pyridine-5-carboxamide], the IC50 stood at 14.5 nM.

For the molecule `O=C(NCc1cn2cc(CNCC3CC(F)(F)C3)ccc2n1)c1cnc2[nH]ccc2c1` [Example 15, N-{[6-({[(3,3-difluorocyclobutyl)methyl]amino}methyl)imidazo[1,2-a]pyridin-2-yl]methyl}-1H-pyrrolo[2,3-b]pyridine-5-carboxamide], the IC50 turned out to be 27.3 nM.

`Cn1ccc2cc(C(=O)NCc3cn4cc(CNCC5CCC5)ccc4n3)cnc21` [Example 16, N-[(6-{[(cyclobutylmethyl)amino]methyl}imidazo[1,2-a]pyridin-2-yl)methyl]-1-methyl-1H-pyrrolo[2,3-b]pyridine-5-carboxamide] displayed a half-maximal inhibitory concentration (IC50) of 1600 nM. This IC50 is about 59-fold higher than that of the molecule before.

For the molecule `O=C(NCc1cn2cc(CNCC3CCC3)ccc2n1)c1ccc2[nH]ccc2c1` [Example 17, N-[(6-{[(cyclobutylmethyl)amino]methyl}imidazo[1,2-a]pyridin-2-yl)methyl]-1H-indole-5-carboxamide], half-maximal inhibition (IC50) was put at 3820 nM. This IC50 is about 2.4-fold higher than that of the molecule before.

Turning to `O=C(NCc1cn2cc(CNCC3CCC3)ccc2n1)c1cnc2[nH]ccc2n1` [Example 18, N-[(6-{[(cyclobutylmethyl)amino]methyl}imidazo[1,2-a]pyridin-2-yl)methyl]-5H-pyrrolo[2,3-b]pyrazine-2-carboxamide], the IC50 stood at 14.1 nM.

Molecule `Clc1cc(-c2cn(Cc3cn4cc(CNCC5CCC5)ccc4n3)nn2)c2cncn2c1` [Example 24, ({2-[(4-{6-chloroimidazo[1,5-a]pyridin-8-yl}-1H-1,2,3-triazol-1-yl)methyl]imidazo[1,2-a]pyridin-6-yl}methyl)(cyclobutylmethyl)amine] came in with a half-inhibitory concentration (IC50) of 6.1 nM.

On to `c1cc(-c2cn(Cc3cn4cc(CNCC5CCC5)ccc4n3)nn2)c2nncn2c1` [Example 27, (cyclobutylmethyl)({2-[(4-{[1,2,4]triazolo[4,3-a]pyridin-8-yl}-1H-1,2,3-triazol-1-yl)methyl]imidazo[1,2-a]pyridin-6-yl}methyl)amine], for which the half-maximal inhibitory concentration (IC50) stood at 236 nM.

Consider `c1ccc2c(-c3cn(Cc4cn5cc(CN(CC6CCC6)CC6CCC6)ccc5n4)nn3)cncc2c1` [Example 32, bis(cyclobutylmethyl)[(2-{[4-(isoquinolin-4-yl)-1H-1,2,3-triazol-1-yl]methyl}imidazo[1,2-a]pyridin-6-yl)methyl]amine], for which inhibition was half-maximal at 1260 nM (IC50).

For `c1cc2cc(-c3cn(Cc4cn5cc(CNCC6CCC6)ccc5n4)cn3)cnc2[nH]1` [Example 34, (cyclobutylmethyl)({2-[(4-{1H-pyrrolo[2,3-b]pyridin-5-yl}-1H-imidazol-1-yl)methyl]imidazo[1,2-a]pyridin-6-yl}methyl)amine], the IC50 was determined as 9.34 nM.

Turning to `Cc1ncc2c(-c3cn(Cc4cn5cc(CNCC67CC(F)(C6)C7)ccc5n4)nn3)cccn12` [Example 36, ({3-fluorobicyclo[1.1.1]pentan-1-yl}methyl)({2-[(4-{3-methylimidazo[1,5-a]pyridin-8-yl}-1H-1,2,3-triazol-1-yl)methyl]imidazo[1,2-a]pyridin-6-yl}methyl)amine], 105 nM corresponded to half-maximal inhibition (IC50).

On to `COc1cnc(C#N)c(-c2cn(Cc3cn4cc(CNCC56CC(C5)C6)ccc4n3)nn2)c1` [Example 37, 3-{1-[(6-{[({bicyclo[1.1.1]pentan-1-yl}methyl)amino]methyl}imidazo[1,2-a]pyridin-2-yl)methyl]-1H-1,2,3-triazol-4-yl}-5-methoxypyridine-2-carbonitrile], for which the IC50 turned out to be 11.2 nM.

`COc1cnc(C#N)c(-c2cn(Cc3cn4cc(CNCC5CCC5)ccc4n3)nn2)c1` [Example 38, 3-{1-[(6-{[(cyclobutylmethyl)amino]methyl}imidazo[1,2-a]pyridin-2-yl)methyl]-1H-1,2,3-triazol-4-yl}-5-methoxypyridine-2-carbonitrile] showed an IC50 of 57 nM.

Molecule `COc1cnc(C#N)c(-c2cn(Cc3cn4cc(CN5CCC6(CCC6)C5)ccc4n3)nn2)c1` [Example 40, 3-(1-{[6-({6-azaspiro[3.4]octan-6-yl}methyl)imidazo[1,2-a]pyridin-2-yl]methyl}-1H-1,2,3-triazol-4-yl)-5-methoxypyridine-2-carbonitrile] displayed an IC50 of 76 nM.

`N#Cc1ncc(F)cc1-c1cn(Cc2cn3cc(CN4CCC5(CCC5)C4)ccc3n2)nn1` [Example 42, 3-(1-{[6-({6-azaspiro[3.4]octan-6-yl}methyl)imidazo[1,2-a]pyridin-2-yl]methyl}-1H-1,2,3-triazol-4-yl)-5-fluoropyridine-2-carbonitrile] yielded an IC50 of 1180 nM.

In the case of `N#Cc1ncc(F)cc1-c1cn(Cc2cn3cc(CNCC45CC(F)(C4)C5)ccc3n2)nn1` [Example 43, 5-fluoro-3-{1-[(6-{[({3-fluorobicyclo[1.1.1]pentan-1-yl}methyl)amino]methyl}imidazo[1,2-a]pyridin-2-yl)methyl]-1H-1,2,3-triazol-4-yl}pyridine-2-carbonitrile], the 50% inhibitory concentration (IC50) was determined as 235 nM.

The molecule `COc1cncc(C(=O)NCc2cn3cc(CNCC4CCC4)ccc3n2)c1` [Example 46, N-[(6-{[(cyclobutylmethyl)amino]methyl}imidazo[1,2-a]pyridin-2-yl)methyl]-5-methoxypyridine-3-carboxamide] showed an IC50 of 74 nM.

In turn, `COc1cnc(C(N)=O)c(-c2cn(Cc3cn4cc(CNCC56CC(F)(C5)C6)ccc4n3)nn2)c1` [Example 49, 3-{1-[(6-{[({3-fluorobicyclo[1.1.1]pentan-1-yl}methyl)amino]methyl}imidazo[1,2-a]pyridin-2-yl)methyl]-1H-1,2,3-triazol-4-yl}-5-methoxypyridine-2-carboxamide] registered an IC50 of 85 nM. This IC50 and that of the molecule before are within 1.5-fold of each other.

The assay is the same for the next values; noted with them: inhibition of RNA methyltransferase activity; 5 nM METTL3/14, 0.2 μM RNA substrate, 0.5 μM SAM; lower limit of the assay IC50=5 nM.
In the case of `O=C(NCc1cn2cc(CNCC3CCCCC3)ccc2n1)c1cnc2ccccc2c1` [Example 8, N-[(6-{[(cyclohexylmethyl)amino]methyl}imidazo[1,2-a]pyridin-2-yl)methyl]quinoline-3-carboxamide], the IC50 turned out to be 1190 nM.

As for `Cc1ccc2nc(CNC(=O)c3nccc4[nH]ncc34)cn2c1` [Reference Example 1, N-({6-methylimidazo[1,2-a]pyridin-2-yl}methyl)-1H-pyrazolo[4,3-c]pyridine-4-carboxamide], the IC50 came out at 5340 nM.

The next assay has as its system KASUMI-1 cells. Put plainly: Kasumi cell assay (CellTiter-Glo cell growth). It is filed as cell-based. The settings on record: Homo sapiens, 120 hours treatment, 30 μM top concentration. On the procedure:
Cell culture: KASUMI-1 cells (ACC20, Leibniz-Institut DSMZ Deutsche Sammlung von Mikroorganismen und Zellkulturen GmbH) were grown in RPMI 1640 (31870-025, Gibco) supplemented with 20% fetal bovine serum (F1524, Gibco), 1 mM sodium pyruvate (11360-039, Gibco) and 2 mM Glutamax (35050-038, Gibco) in a 5% CO2 humidified incubator at 37° C.
Cell treatment and cell growth assessment: KASUMI-1 […] were seeded in ultra-low attachment 384-well culture plate (MS-9384WZ, SBio) at a final concentration of 250,000 cells/ml (35 μL/well) and treated for 120 hours with compounds inhibiting the METTL3/14 activity (10 serial semi-log dilutions, 30 μM as top concentration). Upon treatment, Kasumi1 cells were incubated for 10 min at RT with the CellTiter-Glo reagent (G7571, Promega). Measurement of the luminescence signal was performed on a microplate reader (Ensight, PerkinElmer).
For orientation: In ATP-based viability assays light output follows the ATP content of the culture.
Molecule `c1cc(-c2cn(Cc3cn4cc(CNCC5CCC5)ccc4n3)nn2)c2nncn2c1` [Example 27, (cyclobutylmethyl)({2-[(4-{[1,2,4]triazolo[4,3-a]pyridin-8-yl}-1H-1,2,3-triazol-1-yl)methyl]imidazo[1,2-a]pyridin-6-yl}methyl)amine] showed an IC50 of 30000 nM. In other words, the double-digit micromolar range.

For another assay, the system named is Caov-3 cells. Put plainly: Caov3 CTG proliferation assay (CellTiter-Glo). Type of assay: cell-based. The settings on record: Homo sapiens, 120 hours treatment, 30 μM top concentration. The method, then:
Cell treatment and cell growth assessment: 18 hours post-seeding in white 384-Viewplate (6007480, PerkinElmer) at 1500 cells/well, Caov3 cells were treated for 120 hours with compounds inhibiting the METTL3/14 activity (10 serial semi-log dilutions, 30 μM as top concentration). Upon treatment, Coav-3 cells were incubated for 10 min at RT with the CellTiter-Glo reagent (G7571, Promega). Measurement of the luminescence signal was performed on a microplate reader (Ensight, PerkinElmer).
In the case of `O=C(NCc1cn2cc(CNCC3CCC3)ccc2n1)c1cnc2[nH]ccc2n1` [Example 18, N-[(6-{[(cyclobutylmethyl)amino]methyl}imidazo[1,2-a]pyridin-2-yl)methyl]-5H-pyrrolo[2,3-b]pyrazine-2-carboxamide], the IC50 is 2790 nM.

Molecule `Clc1cc(-c2cn(Cc3cn4cc(CNCC5CCC5)ccc4n3)nn2)c2cncn2c1` [Example 24, ({2-[(4-{6-chloroimidazo[1,5-a]pyridin-8-yl}-1H-1,2,3-triazol-1-yl)methyl]imidazo[1,2-a]pyridin-6-yl}methyl)(cyclobutylmethyl)amine] returned an IC50 of 343 nM.

On to `c1cc2cc(-c3cn(Cc4cn5cc(CNCC6CCC6)ccc5n4)cn3)cnc2[nH]1` [Example 34, (cyclobutylmethyl)({2-[(4-{1H-pyrrolo[2,3-b]pyridin-5-yl}-1H-imidazol-1-yl)methyl]imidazo[1,2-a]pyridin-6-yl}methyl)amine], for which the IC50 is 1280 nM.
